Values joined by “and” are separate entries in the source; they are usually repeats but may differ in a detail not shown here. Equal values may be shown once. Toxic doses and inconclusive results are not listed.
Test system: CD2F1 mice, L1210 leukemia ip, survival T/C
Assay: NCI In Vivo Anticancer Drug Screen. Data for tumor model L1210 Leukemia (intraperitoneal) in CD2F1 (CDF1) mice
Details: higher = longer survival
Outline: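 Tumor-bearing mice (transplanted tumor) were split into treated and vehicle control groups, and the measured endpoint of each treated group was divided by that of its vehicle controls.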

[1] = endpoint: mean survival time, dose: 100.0 mg/kg/injection, schedule: Q04DX003 (ip), vehicle: saline with Tween-80
[2] = endpoint: mean survival time, dose: 200.0 mg/kg/injection, schedule: Q04DX003 (ip), vehicle: saline with Tween-80
[3] = endpoint: mean survival time, dose: 400.0 mg/kg/injection, schedule: Q04DX003 (ip), vehicle: saline with Tween-80
[4] = endpoint: mean survival time, dose: 6.25 mg/kg/injection, schedule: Q01DX009 (ip), vehicle: saline with Tween-80
[5] = endpoint: mean survival time, dose: 12.5 mg/kg/injection, schedule: Q01DX009 (ip), vehicle: saline with Tween-80
[6] = endpoint: mean survival time, dose: 100.0 mg/kg/injection, schedule: Q01DX001 (ip), vehicle: saline
[7] = endpoint: mean survival time, dose: 200.0 mg/kg/injection, schedule: Q01DX001 (ip), vehicle: saline
[8] = endpoint: mean survival time, dose: 400.0 mg/kg/injection, schedule: Q01DX001 (ip), vehicle: saline
[9] = endpoint: mean survival time, dose: 100.0 mg/kg/injection, schedule: Q01DX009 (ip), vehicle: saline with Tween-80
[10] = endpoint: mean survival time, dose: 400.0 mg/kg/injection, schedule: Q01DX009 (ip), vehicle: saline with Tween-80

With `CCOc1ccc(C(C)c2cc3c(cc2OC)OCO3)cc1` (stereo not drawn) the T/C (endpoint: median survival time, dose: 25.0 mg/kg/injection, schedule: Q01DX009 (ip), vehicle: distilled water + Tween-80) was 104 % of control, the T/C (endpoint: median survival time, dose: 25.0 mg/kg/injection, schedule: Q01DX009 (ip), vehicle: saline with Tween-80) was 117 % of control and the T/C (endpoint: median survival time, dose: 50.0 mg/kg/injection, schedule: Q01DX009 (ip), vehicle: distilled water + Tween-80) was 104 % of control. For the same compound, the T/C (endpoint: median survival time, dose: 50.0 mg/kg/injection, schedule: Q01DX009 (ip), vehicle: saline with Tween-80) was 109 % of control, the T/C (endpoint: median survival time, dose: 100.0 mg/kg/injection, schedule: Q01DX009 (ip), vehicle: distilled water + Tween-80) was 109 % of control and the T/C (endpoint: median survival time, dose: 100.0 mg/kg/injection, schedule: Q01DX009 (ip), vehicle: saline with Tween-80) was 110 % of control. For the same compound, the T/C (endpoint: median survival time, dose: 200.0 mg/kg/injection, schedule: Q01DX009 (ip), vehicle: distilled water + Tween-80) was 124 % of control and the T/C (endpoint: median survival time, dose: 200.0 mg/kg/injection, schedule: Q01DX009 (ip), vehicle: saline with Tween-80) was 150 % of control.
With `Cc1cc(C)c(O)c(C)c1.[Hg]` the T/C (endpoint: mean survival time, dose: 1.56 mg/kg/injection, schedule: Q01DX001 (ip), vehicle: Klucel (hydroxypropylcellulose) (HPC)) was 98 % of control, the T/C (endpoint: mean survival time, dose: 3.13 mg/kg/injection, schedule: Q01DX001 (ip), vehicle: Klucel (hydroxypropylcellulose) (HPC)) was 92 % of control and the T/C (endpoint: mean survival time, dose: 6.25 mg/kg/injection, schedule: Q01DX001 (ip), vehicle: Klucel (hydroxypropylcellulose) (HPC)) was 103 % of control.
For `COc1ccc(Nc2ccccc2Cl)c(C(=O)O)c1`, the T/C [1] was 98 % of control, the T/C [2] was 102 % of control and the T/C [3] was 102 % of control.
`CC(=O)Nc1cccc(OCCCOc2cccc([N+](=O)[O-])c2)c1` was tested, and the T/C [1] was 95 % of control, the T/C [2] was 95 % of control and the T/C [3] was 92 % of control.
`COc1ccc(OC)c(/C=C/c2cc3ccccc3c[n+]2C)c1` was tested, and the T/C (endpoint: mean survival time, dose: 3.13 mg/kg/injection, schedule: Q01DX009 (ip), vehicle: saline with Tween-80) was 94 % of control, the T/C [4] was 102 % of control and the T/C [5] was 105 % of control.
With `CC(O)C1OC(n2cnc3c(=O)[nH]cnc32)CC1O` (stereo not drawn) the T/C (endpoint: median survival time, dose: 12.5 mg/kg/injection, schedule: Q01DX005 (ip), vehicle: water) was 100 % of control, the T/C (endpoint: median survival time, dose: 25.0 mg/kg/injection, schedule: Q01DX005 (ip), vehicle: water) was 100 % of control and the T/C (endpoint: median survival time, dose: 50.0 mg/kg/injection, schedule: Q01DX005 (ip), vehicle: water) was 104 % of control. For the same compound, the T/C (endpoint: median survival time, dose: 100.0 mg/kg/injection, schedule: Q01DX005 (ip), vehicle: water) was 102 % of control and the T/C (endpoint: median survival time, dose: 200.0 mg/kg/injection, schedule: Q01DX005 (ip), vehicle: water) was 102 % of control.
`O=C(Nc1ccccn1)C(O)C(O)C(O)C(O)CO` (stereo not drawn) was tested, and the T/C (endpoint: mean survival time, dose: 12.5 mg/kg/injection, schedule: Q04DX003 (ip), vehicle: saline with Tween-80) was 96 % of control, the T/C (endpoint: mean survival time, dose: 25.0 mg/kg/injection, schedule: Q04DX003 (ip), vehicle: saline with Tween-80) was 101 % of control and the T/C (endpoint: mean survival time, dose: 50.0 mg/kg/injection, schedule: Q04DX003 (ip), vehicle: saline with Tween-80) was 89 % of control.
For `O=S(=O)(/C=C\c1ccccc1)Oc1ccccc1`, the T/C [6] was 100 % of control, the T/C (endpoint: mean survival time, dose: 100.0 mg/kg/injection, schedule: Q04DX003 (ip), vehicle: saline) was 96 % of control and the T/C [7] was 100 % of control. The T/C (endpoint: mean survival time, dose: 200.0 mg/kg/injection, schedule: Q04DX003 (ip), vehicle: saline) was 95 % of control, the T/C [8] was 93 % of control and the T/C (endpoint: mean survival time, dose: 400.0 mg/kg/injection, schedule: Q04DX003 (ip), vehicle: saline) was 90 % of control.
`O=C1CC(c2ccccc2)OC(c2ccccc2Cl)C1` (stereo not drawn) was tested, and the T/C [1] was 94 % of control, the T/C [2] was 97 % of control and the T/C [3] was 94 % of control.
`O=P(O)(c1ccccc1CBr)c1ccccc1CBr` was tested, and the T/C (endpoint: mean survival time, dose: 75.0 mg/kg/injection, schedule: Q01DX001 (ip), vehicle: saline) was 90 % of control.
In the case of `O=C(COc1ccc(Cl)cc1Cl)Nc1ccccc1F`, the T/C [1] is reported as 100 % of control, the T/C [2] is reported as 94 % of control and the T/C [3] is reported as 94 % of control.
With `O=C(O)/C(=C/c1ccc(O)cc1)c1ccccc1` the T/C [9] was 88 % of control, the T/C [1] was 101 % of control and the T/C (endpoint: mean survival time, dose: 200.0 mg/kg/injection, schedule: Q01DX009 (ip), vehicle: saline with Tween-80) was 93 % of control. For the same compound, the T/C [2] was 91 % of control, the T/C [10] was 87 % of control and the T/C [3] was 96 % of control.
With `CCC(C)(O)C1CC1` (stereo not drawn) the T/C (endpoint: mean survival time, dose: 100.0 mg/kg/injection, schedule: Q01DX001 (ip), vehicle: saline with Tween-80) was 98 % of control, the T/C (endpoint: mean survival time, dose: 200.0 mg/kg/injection, schedule: Q01DX001 (ip), vehicle: saline with Tween-80) was 103 % of control and the T/C (endpoint: mean survival time, dose: 400.0 mg/kg/injection, schedule: Q01DX001 (ip), vehicle: saline with Tween-80) was 104 % of control.
In the case of `CC(=O)Nc1ccc(CN2CC(C)N(N)C(C)C2)cc1` (stereo not drawn), the T/C (endpoint: mean survival time, dose: 12.5 mg/kg/injection, schedule: Q01DX009 (ip), vehicle: Klucel (hydroxypropylcellulose) (HPC)) is reported as 103 % of control, the T/C (endpoint: mean survival time, dose: 25.0 mg/kg/injection, schedule: Q01DX009 (ip), vehicle: Klucel (hydroxypropylcellulose) (HPC)) is reported as 98 % of control and the T/C (endpoint: mean survival time, dose: 50.0 mg/kg/injection, schedule: Q01DX009 (ip), vehicle: Klucel (hydroxypropylcellulose) (HPC)) is reported as 98 % of control. For the same compound, the T/C (endpoint: mean survival time, dose: 100.0 mg/kg/injection, schedule: Q01DX009 (ip), vehicle: Klucel (hydroxypropylcellulose) (HPC)) was 101 % of control, the T/C (endpoint: mean survival time, dose: 200.0 mg/kg/injection, schedule: Q01DX009 (ip), vehicle: Klucel (hydroxypropylcellulose) (HPC)) was 103 % of control and the T/C (endpoint: mean survival time, dose: 400.0 mg/kg/injection, schedule: Q01DX009 (ip), vehicle: Klucel (hydroxypropylcellulose) (HPC)) was 89 % of control.
`CC12C(=O)OC(=O)C1(C)C1CCC2O1` (stereo not drawn) was tested, and the T/C (endpoint: mean survival time, dose: 0.39 mg/kg/injection, schedule: Q01DX009 (ip), vehicle: saline with Tween-80) was 94 % of control, the T/C (endpoint: mean survival time, dose: 0.78 mg/kg/injection, schedule: Q01DX009 (ip), vehicle: saline with Tween-80) was 98 % of control and the T/C (endpoint: mean survival time, dose: 1.56 mg/kg/injection, schedule: Q01DX009 (ip), vehicle: saline with Tween-80) was 105 % of control. The T/C (endpoint: mean survival time, dose: 1.56 mg/kg/injection, schedule: Q04DX002 (ip), vehicle: saline with Tween-80) was 92 % of control.
`ONC(CC(O)(NO)NO)c1ccccc1` (stereo not drawn) was tested, and the T/C [6] was 107 % of control, the T/C [7] was 107 % of control and the T/C [8] was 108 % of control.
For `O=C(c1ccccc1)C(Cl)Cl`, the T/C (endpoint: mean survival time, dose: 50.0 mg/kg/injection, schedule: Q01DX009 (ip), vehicle: saline) was 95 % of control, the T/C [9] was 108 % of control and the T/C (endpoint: mean survival time, dose: 100.0 mg/kg/injection, schedule: Q01DX009 (ip), vehicle: saline) was 95 % of control. For the same compound, the T/C (endpoint: mean survival time, dose: 200.0 mg/kg/injection, schedule: Q01DX009 (ip), vehicle: saline) was 106 % of control and the T/C [10] was 86 % of control.
With `CCCC[P+](C)(CC[P+](C)(c1ccccc1)c1ccccc1)c1ccccc1` (stereo not drawn) the T/C (endpoint: mean survival time, dose: 6.25 mg/kg/injection, schedule: Q04DX002 (ip), vehicle: saline) was 104 % of control and the T/C (endpoint: mean survival time, dose: 12.5 mg/kg/injection, schedule: Q04DX002 (ip), vehicle: saline) was 89 % of control.
For `CN(C)N=Nc1ccc(NC(N)=O)cc1`, the T/C [4] was 108 % of control, the T/C (endpoint: mean survival time, dose: 6.25 mg/kg/injection, schedule: Q01DX009 (ip), vehicle: saline) was 118 % of control and the T/C [5] was 113 % of control. For the same compound, the T/C (endpoint: mean survival time, dose: 12.5 mg/kg/injection, schedule: Q01DX009 (ip), vehicle: saline) was 111 % of control, the T/C (endpoint: mean survival time, dose: 25.0 mg/kg/injection, schedule: Q01DX009 (ip), vehicle: saline with Tween-80) was 118 % of control and the T/C (endpoint: mean survival time, dose: 37.5 mg/kg/injection, schedule: Q01DX009 (ip), vehicle: Klucel (hydroxypropylcellulose) (HPC)) was 158 % of control. The T/C (endpoint: mean survival time, dose: 50.0 mg/kg/injection, schedule: Q01DX009 (ip), vehicle: saline with Tween-80) was 159 % of control.
For `NC(C(=O)O)C(O)C(=O)O` (stereo not drawn), the T/C (endpoint: mean survival time, dose: 37.5 mg/kg/injection, schedule: Q01DX009 (ip), vehicle: saline) was 101 % of control, the T/C (endpoint: mean survival time, dose: 75.0 mg/kg/injection, schedule: Q01DX009 (ip), vehicle: saline) was 97 % of control and the T/C (endpoint: mean survival time, dose: 150.0 mg/kg/injection, schedule: Q01DX009 (ip), vehicle: saline) was 98 % of control.
In the case of `NCCS/C=C/C(=O)Oc1ccc(Br)cc1`, the T/C [1] is reported as 103 % of control and the T/C [2] is reported as 96 % of control.
For `ClC(Cl)(Cl)c1nc(C(Cl)(Cl)Cl)nc(C(Cl)(Cl)Cl)n1`, the T/C (endpoint: mean survival time, dose: 100.0 mg/kg/injection, schedule: Q04DX003 (ip), vehicle: Klucel (hydroxypropylcellulose) (HPC)) was 97 % of control, the T/C (endpoint: mean survival time, dose: 200.0 mg/kg/injection, schedule: Q04DX003 (ip), vehicle: Klucel (hydroxypropylcellulose) (HPC)) was 87 % of control and the T/C (endpoint: mean survival time, dose: 400.0 mg/kg/injection, schedule: Q04DX003 (ip), vehicle: Klucel (hydroxypropylcellulose) (HPC)) was 91 % of control.
For `CC(=O)OCC1C(OC(C)=O)CC2CCC1N2C#N` (stereo not drawn), the T/C (endpoint: mean survival time, dose: 50.0 mg/kg/injection, schedule: Q04DX002 (ip), vehicle: Klucel (hydroxypropylcellulose) (HPC)) was 107 % of control, the T/C (endpoint: mean survival time, dose: 100.0 mg/kg/injection, schedule: Q04DX002 (ip), vehicle: Klucel (hydroxypropylcellulose) (HPC)) was 96 % of control and the T/C (endpoint: mean survival time, dose: 200.0 mg/kg/injection, schedule: Q04DX002 (ip), vehicle: Klucel (hydroxypropylcellulose) (HPC)) was 88 % of control and 89 % of control.

From PubChem BioAssay AID256 (DTP/NCI, 2004)
